Results: US20250034106A1, “3-CYCLOAMINO-INDOLE COMPOUNDS AS SEROTONERGIC AGENTS USEFUL FOR THE TREATMENT OF DISORDERS RELATED THERETO” (Mindset Pharma Inc., priority 2021, published 2025)
Like-named read-outs stand apart in the source and are kept apart here.

Experiments:
[1] = DMT and 5-MeO-DMT consumed parenterally; cited from earlier work
human 5-HT2A [2] = biological target: T1, human 5-HT2A (Homo sapiens (Human), UniProt P28223); assay: Human 5-HT2A radioligand binding assay ([3H]-ketanserin); conditions: competition with [3H]-ketanserin; read-out: h5-HT2A IC50
[3] = cited from earlier work
[4] = biological target: human 5-HT2A (h5-HT2A) receptor (Homo sapiens (Human), UniProt P28223); assay: FLIPR assay, human 5-HT2A, agonist mode; type: cell-based; conditions: FLIPR calcium assay
Experimental: 4. […] Vortexed vigorously for 1-2 minutes.
8. 3×compound in assay buffer was prepared: a. Reference compounds were diluted to required concentration with DMSO. […] Serial dilutions were performed; c.
ii. Calculated the percentage activation by using following equation:
% Activation=(RFU compound−RFU low control)/(RFU top concentration of reference agonist−RFU low control)×100%

human 5-HT2A [5] = biological target: T1, human 5-HT2A; conditions: cited from earlier work

| Compound | duration of action / effects [1] | IC50 (human 5-HT2A [2]) [nM] | EC50 [4] [nM] | further results |
| --- | --- | --- | --- | --- |
| COc1ccc2[nH]cc(CCN(C)C)c2c1 [Compound 5-MeO-DMT, 5-methoxy-N,N-dimethyltryptamine] | less than 1 h |  |  |  |
| [2H]C1([2H])CC(c2c[nH]c3ccc(OC)cc23)C([2H])([2H])N1C (stereo not drawn) [Compound 1-54, 5-Methoxy-3-(1-methylpyrrolidin-3-yl-2,2,5,5-d4)-1H-indole] |  | 500 to 10000 |  |  |
| [2H]C([2H])([2H])N1CCC(c2c[nH]c3ccccc23)C1 (stereo not drawn) [Compound 1-48] |  | 500 to 10000 |  |  |
| CN(C)CCc1c[nH]c2cccc(OP(=O)(O)O)c12 [psilocybin, 4-phosphoryloxy-N,N-dimethyltrypatmine] | 5 to 8 h |  |  | abstinence rate ([3]; 12 months follow-up): 67%; abstinence rate ([3]; six months follow-up): 80% |
| [2H]c1[nH]c2c([2H])c([2H])c([2H])c([2H])c2c1C1CCN(C)C1 (stereo not drawn) [Compound 1-32, 3-(1-Methylpyrrolidin-3-yl)-1H-indole-2,4,5,6,7-d5] |  | < 500 | > 10000 |  |
| CN(C)CCc1c[nH]c2ccccc12 [DMT, N,N-dimethyltryptamine] | less than 1 h | < 500 |  | binding affinity 5-HT2A (human 5-HT2A [5]): 0.237 µM |
| [2H]c1[nH]c2c([2H])c([2H])c([2H])c([2H])c2c1C1CC([2H])([2H])N(C)C1([2H])[2H] (stereo not drawn) [Compound 1-44, 3-(1-Methylpyrrolidin-3-yl-2,2,5,5-d4)-1H-indole-2,4,5,6,7-d5] |  | < 500 | > 10000 |  |
| [2H]c1[nH]c2c([2H])c([2H])c([2H])c([2H])c2c1C1CCNCC1 [Compound 1-1, 3-(piperidin-4-yl)-1H-indole-2,4,5,6,7-d5] |  | 500 to 10000 | 1000 to 10000 |  |
